Data: patent US5629347A, “Aromatic compounds, pharmaceutical compositions containing them and their use in therapy” (Merck Sharp & Dohme Ltd., priority 1991, dated 1997)
Counter-ions that a name gives are not always drawn.

Molecular target: human NK1R (Homo sapiens, UniProt P25103)
Experiment: biochemical
Format: binding
Details: displacement of 125I-substance P; human NK1R in COS or CHO cells
Protocol: To express the cloned human neurokinin-1-receotor (NK1R) transiently in COS, the cDNA for the human NK1R was cloned into the expression vector pCDM9 which was derived from pCDM8 (INVITROGEN) by inserting the ampicillin resistance gene (nucleotide 1973 to 2964 from BLUESCRIPT SK+ (trademark, […], La Jolla, Calif., U.S.A.)) into the Sac II site. Transfection of 20 ug of the plasmid DNA into 10 million COS cells was achieved by electroporation in 800 μl of transfection buffer (135 mM NaCl, 1.2 mM CaCl2, 1.2 mM MgCl2, 2.4 mM K2 HPO4, 0.6 mM KH2 PO4, 10 mM glucose, 10 mM N-2-hydroxyethyl-piperazine-N'-2-ethane sulphonic acid (HEPES) pH 7.4) at 260 V and 950 μF using the IBI GENEZAPPER (trademark IBI, New Haven, Conn., U.S.A.). The cells were incubated in 10% fetal calf serum, 2 mM glutamine, 100 U/ml penicillin-streptomycin, and 90% DMEM media (GIBCO, Grand Island, N.Y., U.S.A.) in 5% CO2 at 37° C. for three days before the binding assay.
To establish a stable cell line expressing cloned human NK1R, the cDNA was subcloned into the vector pRcCMV (INVITROGEN). Transfection of 20 ug of the plasmid DNA into CHO cells was achieved by electroporation in 800 μl of transfection buffer supplemented with 0.625 mg/ml Herring sperm DNA at 300 V and 950 μF using the IBI GENEZAPPER (IBI). The transfected cells were incubated. in CHO media [10% fetal calf serum, 100 U/ml penicillin-streptomycin, 2 mM glutamine, 1/500 hypoxanthinethymidine (ATCC), 90% IMDM media (JRH BIOSCIENCES, Lenexa, Kans., U.S.A.), 0.7 mg/ml G418 (GIBCO)] in 5% CO2 at 37° C. until colonies were visible. Each colony was separated and propagated. The cell clone with the highest number of human NK1R was selected for subsequent applications such as drug screening.
The binding assay of human NK1R expressed in either COS or CHO cells is based on the use of ^125 I-substance P (^125 I-SP, from DU PONT, Boston, Mass.) as a radioactively labeled ligand which competes with unlabeled substance P or any other ligand for binding to the human NK1R. […] The tubes were incubated at 4° C. or at room temperature for 1 hour with gentle shaking. The bound radioactivity was separated from unbound radioactivity by GF/C filter (BRANDEL, Gaithersburg, Md.) which was prewetted with 0.1% polyethylenimine. The filter was washed with 3 ml of wash buffer (50 mM Tris pH 7.5, 5 mM MnCl2, 150 mM NaCl) three times and its radioactivity was determined by gamma counter.

Chain of human NK1R (P25103 whole entry): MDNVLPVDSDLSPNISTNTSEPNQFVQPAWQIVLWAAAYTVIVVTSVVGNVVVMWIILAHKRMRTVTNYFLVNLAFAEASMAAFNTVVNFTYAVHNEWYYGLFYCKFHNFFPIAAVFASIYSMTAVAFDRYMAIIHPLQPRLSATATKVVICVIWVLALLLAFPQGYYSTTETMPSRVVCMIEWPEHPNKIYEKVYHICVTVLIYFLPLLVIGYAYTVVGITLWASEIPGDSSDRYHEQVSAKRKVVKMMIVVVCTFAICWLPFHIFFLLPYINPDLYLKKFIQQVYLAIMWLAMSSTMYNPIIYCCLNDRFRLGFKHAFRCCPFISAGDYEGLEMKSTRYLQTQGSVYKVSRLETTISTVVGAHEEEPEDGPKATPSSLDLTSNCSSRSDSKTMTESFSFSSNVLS

SMILES | IC50
NC(C(=O)NCc1cc(C(F)(F)F)cc(C(F)(F)F)c1)C(c1ccccc1)c1ccccc1 (stereo not shown) [Example 67, 2-Amino-3,3-diphenyl-N-((3,5-bis(trifluoromethyl)phenyl)methyl)propionamide] | 220 nM
Cc1cc(CNCC(N)C(c2ccccc2)c2ccccc2)cc(C(F)(F)F)c1 (stereo not shown) [Example 68, 2-Ammonium-3,3-diphenyl-1-((3-methyl, 5-trifluoromethyl)phenyl)methylamino)propane oxalate salt] | 400 nM
CS(=O)(=O)NC(COCc1cc(C(F)(F)F)cc(C(F)(F)F)c1)C(c1ccccc1)c1ccccc1 (stereo not shown) [Example 69, 1-((3,5-Bis(trifluoromethyl)phenyl)methyloxy)-3,3-diphenyl-2-methylsulphonamidopropane] | 35 nM
CN(CC(N)=O)C(COCc1cc(C(F)(F)F)cc(C(F)(F)F)c1)C(c1ccccc1)c1ccccc1 (stereo not shown) [Example 72, 1-((3,5-Bis(trifluoromethyl)phenyl)methyloxy)-2-(N-((carboxamido)methyl)-N-methyl)ammonium-3,3-diphenylpropane oxalate salt] | 7 nM
